Experiments:
[1] = tested on: HepG2-A16-CD81; experiment: CC50; higher = less toxic
Experimental: (§1)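 Dose-response IC50s: P. falciparum NF54 asexual (pLDH, 72 h; 6 means >6 µM), Dd2 asexual (SYBR Green I, 72 h, 1536-well; 5 means >5 µM), NF54 stage IV/V gametocytes (luciferase 48 h, ATP 24 h, PrestoBlue 48 h), P. berghei liver stage in HepG2-A16-CD81 (luciferase, 48 h; 5 means >5 µM), HepG2 CC50 (CellTiter-Glo; 5 means >5 µM).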

[2] = tested on: Plasmodium falciparum NF54 asexual blood stage
[3] = tested on: Plasmodium falciparum Dd2 asexual blood stage
[4] = tested on: Plasmodium berghei ANKA liver stage in HepG2-A16-CD81
[5] = tested on: Plasmodium falciparum NF54 stage IV/V gametocytes
Experimental: as §1

Structure (SMILES)	IC50 [2]	IC50 [3]	IC50 [4]	IC50 (ATP bioluminescence) [5]	CC50 [1]
CCc1nc(N)nc(N)c1C#CC(C)c1cc(OC)cc(-c2ccncc2)c1 (stereo not drawn)	0.0017 µM	1.74 µM	0.00422 µM		> 5 µM
COc1cc(NCc2ccc3nc(N)nc(N)c3c2C)cc(OC)c1OC		0.108 µM	0.000527 µM		1.66 µM
CCOCc1nc2c(N)nc3ccccc3c2n1CC(C)(C)O	> 6 µM	> 5 µM			
CCCCc1ccc(C(=O)O)nc1	> 6 µM	> 5 µM			
O=C(c1ccccc1)N1CCN(c2ccccc2NC(=O)C(Cl)(Cl)Cl)CC1	2.12 µM	> 5 µM			
CC(C)c1ccc(COc2cccc(-c3cc(S(C)=O)c(C#N)c(=O)[nH]3)c2)cc1 (stereo not drawn)		> 5 µM		0.95 µM	
Oc1c(C(Nc2ccccn2)c2ccccc2)ccc2cccnc12 (stereo not drawn)	5.04 µM	> 5 µM			
Clc1ccc(Cn2c(CN3CCCC3)nc3ccccc32)cc1		> 5 µM		5.86 µM	
Nc1nc(F)nc2c1ncn2[C@H]1O[C@@H](CO)[C@H](O)[C@@H]1O	2.3 µM	> 5 µM			
O=C(Nc1nnc(-c2ccccc2)o1)c1ccc(F)cc1	0.472 µM	> 5 µM			
NCC(=O)Nc1ccc(-n2nc(C(F)(F)F)cc2-c2ccc3c(ccc4ccccc43)c2)cc1		> 5 µM		1.2 µM	
C[C@@H](NC(=O)c1cccc(-c2c[nH]c(-c3cc4ccccc4cn3)n2)c1)c1ccc(F)cc1		> 5 µM		1.1 µM	
COc1ccc2nc(-c3ccccc3)cc(O)c2c1	1.78 µM	1.01 µM			
CN(C)[C@@H]1C(=O)C(C(N)=O)=C(O)[C@@]2(O)C(=O)C3=C(O)c4c(O)c(NC(=O)CN5CCCC5)cc(F)c4C[C@H]3C[C@@H]12	1.5 µM	> 5 µM			
O=C(Nc1ccc(N2CCN(C(=O)c3ccccc3)CC2)cc1)c1ccc2c(c1)OCO2	> 6 µM	> 5 µM			
Nc1c(C(=O)NCc2ccco2)c2nc3ccccc3nc2n1CCN1CCCCC1	> 6 µM	> 5 µM		3.16 µM	
Cc1oncc1C(=O)Nc1ccc(C(F)(F)F)cc1	> 6 µM	> 5 µM			
CC(C)Oc1ccc(-c2nc(-c3cccc4c3CC[C@@H]4NCCO)no2)cc1C#N	> 6 µM	3.66 µM		2.13 µM	
Fc1ccc(-c2nc(-c3c[nH]c4ccc(Br)cc34)[nH]c2-c2ccc(F)cc2)cc1	0.765 µM	4.99 µM			
Nc1cnn(C2OC(CO)C(O)C2O)c(=O)n1 (stereo not drawn)	> 6 µM	> 5 µM			
C[Si]1(C)CCN(Cc2cc(-c3ccc(Cl)cc3)n(-c3ccc(Cl)cc3)n2)CC1	> 6 µM			1.29 µM	
Fc1ccc2c(/C=C/c3cccnc3)c[nH]c2c1		1.01 µM	> 5 µM		> 5 µM
CC[C@@]1(O)C(=O)OCc2c1cc1n(c2=O)Cc2cc3c([N+](=O)[O-])cccc3nc2-1		4.44 µM	3.57 µM		> 5 µM
COc1ccc2cc3[n+](cc2c1OCCN(CCn1cncn1)Cc1ccc(F)cc1F)CCc1cc2c(cc1-3)OCO2	0.138 µM	> 5 µM			
CCC(C)(C)c1ccc(CC(C)CN2C[C@@H](C)O[C@@H](C)C2)cc1 (stereo partly drawn)	2.11 µM	> 5 µM			
CC(C)Cn1c(=O)n(C)c(=O)c2c(-c3cncn3C)n(Cc3cccc4ccccc34)nc21	> 6 µM	> 5 µM			
Cc1c(OCC(F)(F)F)ccnc1CS(=O)c1nc2ccccc2[nH]1 (stereo not drawn)	> 6 µM	> 5 µM			
OC1O[C@H](CSc2ccc(F)cc2)[C@@H](O)[C@H]1O (stereo partly drawn)	0.825 µM	> 5 µM			

The next lines start with results.

IC50 [2]	IC50 [3]	IC50 [4]	IC50 (ATP bioluminescence) [5]	Structure (SMILES)	CC50 [1]
	> 5 µM		2.75 µM	COc1cc(NS(=O)(=O)c2ccc(C)cc2)c2ncccc2c1	
	1.61 µM	1.73 µM		O=c1cc(NCCCN[C@@H]2CCOc3c(Br)cc(Br)cc32)[nH]c2ccsc12	> 5 µM
5.1 µM	> 5 µM			Cc1ccc(S(=O)(=O)Nc2cccc3cccnc23)cc1	
> 6 µM	> 5 µM			CCOc1noc2cc(OCCC3CCN(c4ccc(C)nn4)CC3)ccc12	
5.84 µM	> 5 µM			CCc1cc(O)c(Oc2ccc(C(N)=O)cc2F)cc1F	
> 6 µM	> 5 µM			O=C(Nc1nnc(-c2ccc(Cl)cc2)o1)c1nc2ccccc2s1	
1.58 µM	> 5 µM			CC1CN(c2ncnc3c2c(-c2ccccc2)cn3-c2ccc(F)cc2)CC(C)O1 (stereo not drawn)	
0.687 µM	> 5 µM			O=[N+]([O-])c1ccc2c(CCc3c[nH]c4ccccc34)c[nH]c2c1	
> 6 µM	> 5 µM			Cc1ccc(NC(=O)c2cc(Cl)ccc2O)cc1	
> 6 µM	> 5 µM			CCCCCc1ccc(C(=O)NCCn2cc(CCCCCc3cnc(N)[nH]3)nn2)cc1	
2.57 µM	> 5 µM			O=C(O)CSc1cc(NS(=O)(=O)c2cccc3cccnc23)c2ccccc2c1O	
> 6 µM	> 5 µM			CC(C)Nc1nc2cc(Cl)c(Cl)cc2n1[C@H]1O[C@@H](CO)[C@H](O)[C@@H]1O	
> 6 µM	> 5 µM		0.62 µM	CN(C)CCCNC(=O)c1ccc(-c2cc(O)c3ncccc3c2)cc1	
	2.06 µM	> 5 µM		COC1CC2CCC(C)C(O)(O2)C(=O)C(=O)N2CCCCC2C(=O)OC(C(C)CC2CCC(OCCO)C(OC)C2)CC(=O)C(C)/C=C(\C)C(O)C(OC)C(=O)C(C)CC(C)/C=C/C=C/C=C/1C (stereo not drawn)	> 5 µM
> 6 µM	> 5 µM			C=C[C@]1(C)C[C@@H](OC(=O)CS[C@@H]2C[C@H]3CC[C@@H](C2)N3C)[C@]2(C)[C@H](C)CC[C@]3(CCC(=O)[C@H]32)[C@@H](C)[C@@H]1O	
2.55 µM	> 5 µM			Cc1ccc(NC(=O)c2ccc(CN3CCN(C)CC3)cc2)cc1Nc1nccc(-c2cccnc2)n1	
> 6 µM	> 5 µM			CCC[C@@H]1C[C@@H](C(=O)N[C@@H]([C@H]2O[C@H](SC)[C@H](O)[C@@H](O)[C@H]2O)[C@H](C)Cl)N(C)C1	
> 6 µM	> 5 µM			CC1CCc2c(N3CCC(O)CC3)c(F)cc3c(=O)c(C(=O)O)cn1c23 (stereo not drawn)	
5.7 µM	> 5 µM			NC1C2CC3CC(C2)CC1C3 (stereo not drawn)	
> 6 µM	> 5 µM			CCCCc1ccc(S(=O)(=O)Nc2cc(C)on2)cc1	
> 6 µM	> 5 µM			C=CCN(C(=O)OCc1ccc([N+](=O)[O-])cc1)C1CCN(CC[C@](C)(CN(C)S(=O)(=O)c2ccccc2)c2ccccc2)CC1	
> 6 µM	> 5 µM			COc1ccc(SC(=O)N[C@H](CCC(=O)O)C(=O)O)cc1	
	> 5 µM		0.474 µM	CC(C)=CCC/C(C)=C/CNCCNC1C2CC3CC(C2)CC1C3 (stereo not drawn)	
2.16 µM	4.09 µM			Nc1cc(N)c2nc(-c3ccccc3)c(Nc3ccc(F)cc3)nc2c1	
> 6 µM	> 5 µM			O=C(NCc1ccc(F)cc1)c1c(O)c2ncccc2[nH]c1=O	
> 6 µM	> 5 µM			COc1ccc(CNC(=O)C(NS(=O)(=O)c2ccc3nc(C)sc3c2)C(C)C)cc1 (stereo not drawn)	
